Results: patent US11591322B2, “Certain chemical compositions and methods of use thereof” (Algen Biotechnologies, Inc., priority 2020, dated 2023)

Columns and labels:
CDK9/CyclinT = CDK9/CyclinT (Homo sapiens (Human), UniProt P50750); test: CDK9 biochemical assay (Kinase-Glo Max luminescence); conditions: 30° C. for 45 minutes
Procedure: To each well of a 96-well plate was added 5× kinase assay buffer with 10 mM DTT (6 μL), 500 μM ATP (1 μL), 5×CDK substrate (10 μL), and water (8 μL). 5 μL of compound were added to the test and positive control groups, while 5 μL of solvent was added to the blank groups. 100 ng of CDK9/CyclinT in 20 μL water was added to the test and positive control groups, while 20 μL of 1× kinase assay buffer was added to the blank groups. The reaction mixtures were incubated at 30° C. for 45 minutes, and 50 μL of Kinase-Glo® Max was added to each well and the plates were shielded from light and incubated for 15 minutes at room temperature. Luminescence was measured on a microplate reader and IC50 values were calculated using Prism 9 software.

SK-HEP-1 cells = test: Cancer cell viability assay (CellTiter-Glo 2.0), SK-HEP-1; type: cell-based, Human; conditions: SK-HEP-1, 72 hours compound treatment
Procedure: (§1) Human liver cancer cell lines HepG2, Hep3B, Huh7, and SK-HEP-1 cells were rinsed and trypsinized with 0.25% trypsin (Corning #25-053-CI) in an incubator at 37° C. until detached. The cells were resuspended and seeded in 96-well plates to a density of 5,000 cells per well. Following cell adhesion, compounds were added to a final concentration of 2× dilution. 72 hours following compound treatment, CellTiter-Glo® 2.0 was added to the well in a 2:1 ratio of media/CellTiter-Glo® 2.0. The plates were shielded from light, shaken for 2 minutes, and incubated for 10 minutes. Luminescence was measured on a microplate reader and EC50 values were calculated using Prism 9 software.

HepG2 cells = test: Cancer cell viability assay (CellTiter-Glo 2.0), HepG2; type: cell-based, Human; conditions: HepG2, 72 hours compound treatment
Procedure: as §1

Huh7 cells = test: Cancer cell viability assay (CellTiter-Glo 2.0), Huh7; type: cell-based, Human; conditions: Huh7, 72 hours compound treatment
Procedure: as §1

Hep3B cells = test: Cancer cell viability assay (CellTiter-Glo 2.0), Hep3B; type: cell-based, Human; conditions: 72 hours compound treatment
Procedure: as §1

Sequence of CDK9/CyclinT (P50750 whole entry): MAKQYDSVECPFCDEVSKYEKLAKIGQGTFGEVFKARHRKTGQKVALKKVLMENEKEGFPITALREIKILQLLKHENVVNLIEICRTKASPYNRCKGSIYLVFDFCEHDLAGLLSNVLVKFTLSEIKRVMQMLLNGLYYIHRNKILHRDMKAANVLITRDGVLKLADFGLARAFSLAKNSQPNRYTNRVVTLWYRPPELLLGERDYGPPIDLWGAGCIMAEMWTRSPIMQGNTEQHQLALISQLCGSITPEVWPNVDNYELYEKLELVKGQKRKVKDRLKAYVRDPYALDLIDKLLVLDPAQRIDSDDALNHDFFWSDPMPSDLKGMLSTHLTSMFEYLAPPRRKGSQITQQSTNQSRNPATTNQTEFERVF
Sequence of CDK9/CyclinT (O60563 whole entry partner): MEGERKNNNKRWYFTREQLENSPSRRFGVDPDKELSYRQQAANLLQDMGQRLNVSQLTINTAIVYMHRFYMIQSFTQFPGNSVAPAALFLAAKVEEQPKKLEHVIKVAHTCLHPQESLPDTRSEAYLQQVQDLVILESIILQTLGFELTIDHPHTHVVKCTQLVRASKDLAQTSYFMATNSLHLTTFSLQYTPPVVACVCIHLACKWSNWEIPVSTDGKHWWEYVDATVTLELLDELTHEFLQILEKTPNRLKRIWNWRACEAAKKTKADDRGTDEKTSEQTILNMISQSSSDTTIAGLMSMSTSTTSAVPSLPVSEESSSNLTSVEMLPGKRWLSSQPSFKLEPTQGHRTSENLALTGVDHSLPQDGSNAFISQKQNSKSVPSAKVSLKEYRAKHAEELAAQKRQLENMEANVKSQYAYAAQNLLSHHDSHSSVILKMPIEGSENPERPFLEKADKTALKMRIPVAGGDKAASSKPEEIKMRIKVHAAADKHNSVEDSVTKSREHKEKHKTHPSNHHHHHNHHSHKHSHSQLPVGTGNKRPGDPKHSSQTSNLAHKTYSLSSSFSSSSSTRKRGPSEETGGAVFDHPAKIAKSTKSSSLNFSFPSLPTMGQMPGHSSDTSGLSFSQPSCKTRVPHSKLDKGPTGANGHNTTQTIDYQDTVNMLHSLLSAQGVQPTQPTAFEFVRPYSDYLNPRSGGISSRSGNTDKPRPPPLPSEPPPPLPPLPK

| SMILES | IC50 (CDK9/CyclinT) [nM] | EC50 (SK-HEP-1 cells) [nM] | EC50 (HepG2 cells) [nM] | EC50 (Huh7 cells) [nM] | EC50 (Hep3B cells) [nM] |
| --- | --- | --- | --- | --- | --- |
| C[C@@H](COCc1nn[nH]n1)NC1CCC(Nc2cc(-c3cccc(NCC4(C#N)CCOCC4)n3)c(Cl)cn2)CC1 (stereo partly drawn) [Compound 3, 4-(((2′-(((1S,4R)-4-(((S)-1-((2H-tetrazol-5-yl)methoxy)propan-2-yl)amino)cyclohexyl)amino)-5′-chloro-[2,4′-bipyridin]-6-yl)amino)methyl)tetrahydro-2H-pyran-4-carbonitrile] | > 10 | > 1000 | > 1000 | > 1000 |  |
| C[C@H](COCC(=O)O)NC1CCC(Nc2cc(-c3cccc(NCC4(C#N)CCOCC4)n3)c(Cl)cn2)CC1 (stereo partly drawn) [Compound 8, 2-((R)-2-(((1R,4R)-4-((5′-chloro-6-(((4-cyanotetrahydro-2H-pyran-4-yl)methyl)amino)-[2,4′-bipyridin]-2′-yl)amino)cyclohexyl)amino)propoxy)acetic acid] | 2.5 to 5 | > 1000 | > 1000 | > 1000 |  |
| C[C@@H](Cc1nnn[nH]1)NC1CCC(Nc2cc(-c3cccc(NCC4(C#N)CCOCC4)n3)c(Cl)cn2)CC1 (stereo partly drawn) [Compound 13, 4-(((2′-(((1S,4R)-4-(((S)-1-(1H-tetrazol-5-yl)propan-2-yl)amino)cyclohexyl)amino)-5′-chloro-[2,4′-bipyridin]-6-yl)amino)methyl)tetrahydro-2H-pyran-4-carbonitrile] | > 10 |  | > 1000 |  |  |
| CCOC(=O)O[C@H](C)n1nnc(COC[C@@H](C)N[C@H]2CC[C@H](Nc3cc(-c4cccc(NCC5(C#N)CCOCC5)n4)c(Cl)cn3)CC2)n1 [Compound 21, (R)-1-(5-(((R)-2-(((1r,4R)-4-((5′-chloro-6-(((4-cyanotetrahydro-2H-pyran-4-yl)methyl)amino)-[2,4′-bipyridin]-2′-yl)amino)cyclohexyl)amino)propoxy)methyl)-2H-tetrazol-2-yl)ethyl ethyl carbonate] | < 2.5 |  | > 1000 |  | 500 to 1000 |
| CCOC(=O)O[C@H](C)n1nnc(COC[C@H](C)N[C@H]2CC[C@H](Nc3cc(-c4cccc(NCC5(C#N)CCOCC5)n4)c(Cl)cn3)CC2)n1 [Compound 22, (R)-1-(5-(((S)-2-(((1r,4S)-4-((5′-chloro-6-(((4-cyanotetrahydro-2H-pyran-4-yl)methyl)amino)-[2,4′-bipyridin]-2′-yl)amino)cyclohexyl)amino)propoxy)methyl)-2H-tetrazol-2-yl)ethyl ethyl carbonate] | 2.5 to 5 |  | > 1000 |  | 500 to 1000 |
| CCOC(=O)O[C@@H](C)n1nnc(COC[C@@H](C)N[C@H]2CC[C@H](Nc3cc(-c4cccc(NCC5(C#N)CCOCC5)n4)c(Cl)cn3)CC2)n1 [Compound 24, (S)-1-(5-(((R)-2-(((1r,4R)-4-((5′-chloro-6-(((4-cyanotetrahydro-2H-pyran-4-yl)methyl)amino)-[2,4′-bipyridin]-2′-yl)amino)cyclohexyl)amino)propoxy)methyl)-2H-tetrazol-2-yl)ethyl ethyl carbonate] | > 10 |  | > 1000 |  | > 1000 |
| CCOC(=O)O[C@@H](C)n1nnc(COC[C@H](C)N[C@H]2CC[C@H](Nc3cc(-c4cccc(NCC5(C#N)CCOCC5)n4)c(Cl)cn3)CC2)n1 [Compound 25, (S)-1-(5-(((S)-2-(((1r,4S)-4-((5′-chloro-6-(((4-cyanotetrahydro-2H-pyran-4-yl)methyl)amino)-[2,4′-bipyridin]-2′-yl)amino)cyclohexyl)amino)propoxy)methyl)-2H-tetrazol-2-yl)ethyl ethyl carbonate] | > 10 |  | > 1000 |  | > 1000 |
| CCOC(=O)O[C@@H](C)n1nnnc1COC[C@@H](C)N[C@H]1CC[C@H](Nc2cc(-c3cccc(NCC4(C#N)CCOCC4)n3)c(Cl)cn2)CC1 [Compound 30, (S)-1-(5-(((R)-2-(((1r,4R)-4-((5′-chloro-6-(((4-cyanotetrahydro-2H-pyran-4-yl)methyl)amino)-[2,4′-bipyridin]-2′-yl)amino)cyclohexyl)amino)propoxy)methyl)-1H-tetrazol-1-yl)ethyl ethyl carbonate] | < 2.5 |  | 500 to 1000 |  | > 1000 |
| C[C@@H](COCc1nnn(C)n1)N[C@H]1CC[C@H](Nc2cc(-c3cccc(NCC4(C#N)CCOCC4)n3)c(Cl)cn2)CC1 [Compound 34, 4-(((5′-chloro-2′-(((1S,4r)-4-(((S)-1-((2-methyl-2H-tetrazol-5-yl)methoxy)propan-2-yl)amino)cyclohexyl)amino)-[2,4′-bipyridin]-6-yl)amino)methyl)tetrahydro-2H-pyran-4-carbonitrile] | > 10 |  | < 100 |  | 100 to 500 |
| COC[C@@H](C)NC1CCC(Nc2cc(-c3cccc(NCC4(C#N)CCOCC4)n3)c(Cl)cn2)CC1 (stereo partly drawn) [NVP-2, reference compound] | 2.5 to 5 |  |  |  |  |

Further lines, results first:

| IC50 (CDK9/CyclinT) [nM] | EC50 (SK-HEP-1 cells) [nM] | EC50 (HepG2 cells) [nM] | EC50 (Huh7 cells) [nM] | EC50 (Hep3B cells) [nM] | SMILES |
| --- | --- | --- | --- | --- | --- |
| < 2.5 | < 100 | 500 to 1000 | < 100 |  | CCOC(=O)COC[C@@H](C)NC1CCC(Nc2cc(-c3cccc(NCC4(C#N)CCOCC4)n3)c(Cl)cn2)CC1 (stereo partly drawn) [Compound 5] |
| > 10 |  | > 1000 |  |  | C[C@H](Cc1nnn[nH]1)NC1CCC(Nc2cc(-c3cccc(NCC4(C#N)CCOCC4)n3)c(Cl)cn2)CC1 (stereo partly drawn) [Compound 12, 4-(((2′-(((1R,4R)-4-(((R)-1-(1H-tetrazol-5-yl)propan-2-yl)amino)cyclohexyl)amino)-5′-chloro-[2,4′-bipyridin]-6-yl)amino)methyl)tetrahydro-2H-pyran-4-carbonitrile] |
| 2.5 to 5 | < 100 | < 100 | < 100 |  | CC(C)OC(=O)COC[C@@H](C)N[C@H]1CC[C@H](Nc2cc(-c3cccc(NCC4(C#N)CCOCC4)n3)c(Cl)cn2)CC1 [Compound 15, isopropyl 2-((R)-2-(((1r,4R)-4-((5′-Chloro-6-(((4-Cyanotetrahydro-2H-pyran-4-yl)methyl)amino)-[2,4′-bipyridin]-2′-yl)amino)cyclohexyl)amino)propoxy)acetate] |
| < 2.5 |  | > 1000 |  | > 1000 | CCOC(=O)O[C@H](C)n1nnnc1COC[C@@H](C)N[C@H]1CC[C@H](Nc2cc(-c3cccc(NCC4(C#N)CCOCC4)n3)c(Cl)cn2)CC1 [Compound 27, (R)-1-(5-(((R)-2-(((1r,4R)-4-((5′-chloro-6-(((4-cyanotetrahydro-2H-pyran-4-yl)methyl)amino)-[2,4′-bipyridin]-2′-yl)amino)cyclohexyl)amino)propoxy)methyl)-1H-tetrazol-1-yl)ethyl ethyl carbonate] |
| > 10 |  | > 1000 |  | > 1000 | CCOC(=O)O[C@H](C)n1nnnc1COC[C@H](C)N[C@H]1CC[C@H](Nc2cc(-c3cccc(NCC4(C#N)CCOCC4)n3)c(Cl)cn2)CC1 [Compound 28, (R)-1-(5-(((S)-2-(((1r,4S)-4-((5′-chloro-6-(((4-cyanotetrahydro-2H-pyran-4-yl)methyl)amino)-[2,4′-bipyridin]-2′-yl)amino)cyclohexyl)amino)propoxy)methyl)-1H-tetrazol-1-yl)ethyl ethyl carbonate] |
| < 2.5 |  | > 1000 |  | > 1000 | CCOC(=O)O[C@@H](C)n1nnnc1COC[C@H](C)N[C@H]1CC[C@H](Nc2cc(-c3cccc(NCC4(C#N)CCOCC4)n3)c(Cl)cn2)CC1 [Compound 31, (S)-1-(5-(((S)-2-(((1r,4S)-4-((5′-chloro-6-(((4-cyanotetrahydro-2H-pyran-4-yl)methyl)amino)-[2,4′-bipyridin]-2′-yl)amino)cyclohexyl)amino)propoxy)methyl)-1H-tetrazol-1-yl)ethyl ethyl carbonate] |
| < 2.5 |  | 100 to 500 |  | 500 to 1000 | C[C@H](COCc1nnnn1C)N[C@H]1CC[C@H](Nc2cc(-c3cccc(NCC4(C#N)CCOCC4)n3)c(Cl)cn2)CC1 [Compound 36, 4-(((5′-chloro-2′-(((1R,4r)-4-(((R)-1-((1-methyl-1H-tetrazol-5-yl)methoxy)propan-2-yl)amino)cyclohexyl)amino)-[2,4′-bipyridin]-6-yl)amino)methyl)tetrahydro-2H-pyran-4-carbonitrile] |
| < 2.5 |  | 100 to 500 |  | 100 to 500 | C[C@@H](COCc1nnnn1C)N[C@H]1CC[C@H](Nc2cc(-c3cccc(NCC4(C#N)CCOCC4)n3)c(Cl)cn2)CC1 [Compound 37, 4-(((5′-chloro-2′-(((1S,4r)-4-(((S)-1-((1-methyl-1H-tetrazol-5-yl)methoxy)propan-2-yl)amino)cyclohexyl)amino)-[2,4′-bipyridin]-6-yl)amino)methyl)tetrahydro-2H-pyran-4-carbonitrile] |
| 5 to 10 |  | < 100 |  | 100 to 500 | CC(COCCNS(=O)(=O)C(F)F)NC1CCC(Nc2cc(-c3cccc(NCC4(C#N)CCOCC4)n3)c(Cl)cn2)CC1 (stereo not drawn) [Compound 41, N-(2-(2-(((1r,4r)-4-((5′-chloro-6-(((4-cyanotetrahydro-2H-pyran-4-yl)methyl)amino)-[2,4′-bipyridin]-2′-yl)amino)cyclohexyl)amino)propoxy)ethyl)-1,1-difluoromethanesulfonamide] |
